ChEMBL document CHEMBL3397033, “Bioactive benzofuran derivatives: moracins A-Z in medicinal chemistry” (Eur J Med Chem, 2015)
In brackets after ≈: the same amount, converted by molar mass.

How the values were obtained:
Escherichia coli [1] = assay: Antimicrobial activity against Escherichia coli; assay type: functional
Klebsiella pneumoniae [2] = assay: Antimicrobial activity against Klebsiella pneumoniae; assay type: functional
Pseudomonas aeruginosa [3] = assay: Antimicrobial activity against Pseudomonas aeruginosa; assay type: functional
A549 = assay: Cytotoxicity against human A549 cells after 96 hrs by MTT assay; assay type: functional, cell-based; conditions: A549, 96 h
[4] = Cytotoxicity against human Bel7402 cells after 96 hrs by MTT assay; assay type: functional, cell-based; conditions: Bel-7402, 96 h
[5] = Cytotoxicity against human BGC823 cells after 96 hrs by MTT assay; assay type: functional, cell-based; conditions: BGC-823, 96 h
[6] = Cytotoxicity against human HCT8 cells after 96 hrs by MTT assay; assay type: functional, cell-based; conditions: HCT-8, 96 h
A2780 = assay: Cytotoxicity against human A2780 cells after 96 hrs by MTT assay; assay type: functional, cell-based; conditions: A2780, 96 h
[7] = Antifungal activity against Fusarium roseum; assay type: functional
[8] = Antifungal activity against Fusarium lateritium f. sp. mori; assay type: functional
[9] = Antifungal activity against Fusarium solani f. sp. mori; assay type: functional
[10] = Antifungal activity against Diaporthe nomurai; assay type: functional
[11] = Antifungal activity against Stigmina mori; assay type: functional
Rosellinia necatrix = assay: Antifungal activity against Rosellinia necatrix; assay type: functional
[12] = Antifungal activity against Cochliobolus miyabeanus; assay type: functional; conditions: Bipolaris oryzae
Escherichia coli [13] = assay: Antimicrobial activity against Escherichia coli by liquid microdilution assay; assay type: functional
Shigella dysenteriae [14] = assay: Antimicrobial activity against Shigella dysenteriae by liquid microdilution assay; assay type: functional
Pseudomonas aeruginosa [15] = assay: Antimicrobial activity against Pseudomonas aeruginosa by liquid microdilution assay; assay type: functional
Klebsiella pneumoniae [16] = assay: Antimicrobial activity against Klebsiella pneumoniae by liquid microdilution assay; assay type: functional
Salmonella typhi [17] = assay: Antimicrobial activity against Salmonella typhi by liquid microdilution assay; assay type: functional, Salmonella enterica subsp. enterica serovar Typhi; conditions: Salmonella enterica
Bacillus cereus [18] = assay: Antimicrobial activity against Bacillus cereus by liquid microdilution assay; assay type: functional
Staphylococcus aureus [19] = assay: Antimicrobial activity against Staphylococcus aureus by liquid microdilution assay; assay type: functional
Enterococcus faecalis [20] = assay: Antimicrobial activity against Streptococcus faecalis by liquid microdilution assay; assay type: functional
Microsporum audouinii [21] = assay: Antimicrobial activity against Microsporum audouinii by liquid microdilution assay; assay type: functional
Escherichia coli [22] = assay: Microbicidal activity against Escherichia coli by liquid microdilution assay; assay type: functional
Shigella dysenteriae [23] = assay: Microbicidal activity against Shigella dysenteriae by liquid microdilution assay; assay type: functional
Pseudomonas aeruginosa [24] = assay: Microbicidal activity against Pseudomonas aeruginosa by liquid microdilution assay; assay type: functional
Klebsiella pneumoniae [25] = assay: Microbicidal activity against Klebsiella pneumoniae by liquid microdilution assay; assay type: functional
Salmonella typhi [26] = assay: Microbicidal activity against Salmonella typhi by liquid microdilution assay; assay type: functional, Salmonella enterica subsp. enterica serovar Typhi; conditions: Salmonella enterica
Bacillus cereus [27] = assay: Microbicidal activity against Bacillus cereus by liquid microdilution assay; assay type: functional
Staphylococcus aureus [28] = assay: Microbicidal activity against Staphylococcus aureus by liquid microdilution assay; assay type: functional
Enterococcus faecalis [29] = assay: Microbicidal activity against Streptococcus faecalis by liquid microdilution assay; assay type: functional
Microsporum audouinii [30] = assay: Microbicidal activity against Microsporum audouinii by liquid microdilution assay; assay type: functional
[31] = Antioxidant activity assessed as DPPH radical scavenging activity measured as discoloration at 12.5 ug/ml; assay type: physicochemical
[32] = Antioxidant activity assessed as DPPH radical scavenging activity measured as discoloration at 25 ug/ml; assay type: physicochemical
[33] = Antioxidant activity assessed as DPPH radical scavenging activity measured as discoloration at 50 ug/ml; assay type: physicochemical
[34] = Antioxidant activity assessed as DPPH radical scavenging activity measured as discoloration at 100 ug/ml; assay type: physicochemical
[35] = Antioxidant activity assessed as DPPH radical scavenging activity; assay type: physicochemical
RAW264.7 [36] = assay: Antiinflammatory activity against mouse RAW264.7 cells assessed as reduction of IFNgamma-induced NO production; assay type: functional, cell-based
RAW264.7 [37] = assay: Antiinflammatory activity against mouse RAW264.7 cells assessed as reduction of LPS-induced NO production; assay type: functional, cell-based
[38] = Inhibition of alpha-glucosidase (unknown origin); set-up: species or system Homo sapiens

Oc1cc(O)cc(-c2cc3cc4ccoc4cc3o2)c1
MIC (Escherichia coli [1]): > 100 µg/mL
MIC (Klebsiella pneumoniae [2]): > 100 µg/mL
MIC (Pseudomonas aeruginosa [3]): > 100 µg/mL
IC50 (A549): 7.3 µg/mL (≈ 27.4 µM)
IC50 [4]: 5.9 µg/mL (≈ 22.2 µM)
IC50 [5]: 3.8 µg/mL (≈ 14.3 µM)
IC50 [6]: 6.4 µg/mL (≈ 24 µM)
IC50 (A2780): 5.9 µg/mL (≈ 22.2 µM)

O=Cc1cc2cc(-c3cc(O)cc(O)c3)oc2cc1O
MIC (Escherichia coli [1]): > 100 µg/mL
MIC (Klebsiella pneumoniae [2]): > 100 µg/mL
MIC (Pseudomonas aeruginosa [3]): > 100 µg/mL
IC50 (A549): > 10 µg/mL
IC50 [4]: 6.8 µg/mL (≈ 25.2 µM)
IC50 [5]: 7.6 µg/mL (≈ 28.1 µM)
IC50 [6]: 6.3 µg/mL (≈ 23.3 µM)
IC50 (A2780): 6.9 µg/mL (≈ 25.5 µM)

CC1(C)C=Cc2c(c(O)cc3cc(-c4cc(O)cc(O)c4)oc23)O1
MIC (Escherichia coli [1]): > 100 µg/mL
MIC (Klebsiella pneumoniae [2]): > 100 µg/mL
MIC (Pseudomonas aeruginosa [3]): > 100 µg/mL

CC1(C)C=Cc2c(cc(O)cc2-c2cc3ccc(O)cc3o2)O1
MIC (Escherichia coli [1]): > 100 µg/mL
MIC (Klebsiella pneumoniae [2]): > 100 µg/mL
MIC (Pseudomonas aeruginosa [3]): > 100 µg/mL
MIC [7]: 15 µg/mL (≈ 48.6 µM)
MIC [8]: 50 µg/mL (≈ 162 µM)
MIC [9]: 200 µg/mL (≈ 649 µM)
MIC [10]: 15 µg/mL (≈ 48.6 µM)
MIC [11]: 200 µg/mL (≈ 649 µM)
MIC (Rosellinia necatrix): 15 µg/mL (≈ 48.6 µM)
MIC [12]: 100 µg/mL (≈ 324 µM)

CC1=CCc2c(ccc3cc(-c4cc(O)cc(O)c4)oc23)OC1
MIC (Escherichia coli [1]): > 100 µg/mL
MIC (Klebsiella pneumoniae [2]): > 100 µg/mL
MIC (Pseudomonas aeruginosa [3]): > 100 µg/mL
MIC [7]: 15 µg/mL (≈ 48.6 µM)
MIC [8]: 500 µg/mL (≈ 1620 µM)
MIC [9]: 500 µg/mL (≈ 1620 µM)
MIC [10]: 50 µg/mL (≈ 162 µM)
MIC [11]: 50 µg/mL (≈ 162 µM)
MIC (Rosellinia necatrix): 15 µg/mL (≈ 48.6 µM)
MIC [12]: 50 µg/mL (≈ 162 µM)

COc1cc(OC)c2cc(-c3cc(O)cc(O)c3)oc2c1
MIC (Escherichia coli [1]): > 100 µg/mL
MIC (Klebsiella pneumoniae [2]): > 100 µg/mL
MIC (Pseudomonas aeruginosa [3]): > 100 µg/mL

C/C(=C/Cc1c(O)c2c(c3cc(-c4cc(O)cc(O)c4)oc13)C=CC(C)(C)O2)CCCC(C)(C)O
MIC (Escherichia coli [1]): > 100 µg/mL
MIC (Klebsiella pneumoniae [2]): > 100 µg/mL
MIC (Pseudomonas aeruginosa [3]): > 100 µg/mL
IC50 (A549): > 10 µg/mL
IC50 [4]: > 10 µg/mL
IC50 [5]: 8.3 µg/mL (≈ 17.3 µM)
IC50 [6]: 9.2 µg/mL (≈ 19.2 µM)
IC50 (A2780): > 10 µg/mL

CC1=CCc2c(c(O)cc3cc(-c4cc(O)cc(O)c4)oc23)OC1
MIC (Escherichia coli [1]): > 100 µg/mL
MIC (Klebsiella pneumoniae [2]): > 100 µg/mL
MIC (Pseudomonas aeruginosa [3]): > 100 µg/mL

CC(C)(O)C(O)Cc1cc2cc(-c3cc(O)cc(O)c3)oc2cc1O (configuration not stated)
MIC (Escherichia coli [1]): > 100 µg/mL
MIC (Klebsiella pneumoniae [2]): > 100 µg/mL
MIC (Pseudomonas aeruginosa [3]): > 100 µg/mL
MIC (Escherichia coli [13]): 78 µg/mL (≈ 227 µM)
MIC (Shigella dysenteriae [14]): 78 µg/mL (≈ 227 µM)
MIC (Pseudomonas aeruginosa [15]): 10 µg/mL (≈ 29 µM)
MIC (Klebsiella pneumoniae [16]): 312 µg/mL (≈ 906 µM)
MIC (Salmonella typhi [17]): 156 µg/mL (≈ 453 µM)
MIC (Bacillus cereus [18]): 156 µg/mL (≈ 453 µM)
MIC (Staphylococcus aureus [19]): 312 µg/mL (≈ 906 µM)
MIC (Enterococcus faecalis [20]): 156 µg/mL (≈ 453 µM)
MIC (Microsporum audouinii [21]): 312 µg/mL (≈ 906 µM)
MBC (Escherichia coli [22]): 625 µg/mL (≈ 1810 µM)
MBC (Shigella dysenteriae [23]): 312 µg/mL (≈ 906 µM)
MBC (Pseudomonas aeruginosa [24]): 39 µg/mL (≈ 113 µM)
MBC (Klebsiella pneumoniae [25]): 625 µg/mL (≈ 1810 µM)
MBC (Salmonella typhi [26]): 312 µg/mL (≈ 906 µM)
MBC (Bacillus cereus [27]): 625 µg/mL (≈ 1810 µM)
MBC (Staphylococcus aureus [28]): 625 µg/mL (≈ 1810 µM)
MBC (Enterococcus faecalis [29]): 312 µg/mL (≈ 906 µM)
MFC (Microsporum audouinii [30]): 625 µg/mL (≈ 1810 µM)
Activity [31]: 34.6%
Activity [32]: 38.2%
Activity [33]: 48%
Activity [34]: 50%
EC50 [35]: 7.17 µg/mL (≈ 20.8 µM)
IC50 (RAW264.7 [36]): 14.3 µM
IC50 (RAW264.7 [37]): 14.3 µM

CC1(C)C=Cc2c(O)cc(-c3cc4ccc(O)cc4o3)cc2O1 [MORACIN D]
MIC (Escherichia coli [1]): > 100 µg/mL
MIC (Klebsiella pneumoniae [2]): > 100 µg/mL
MIC (Pseudomonas aeruginosa [3]): > 100 µg/mL
MIC [7]: 7 µg/mL (≈ 22.7 µM)
MIC [8]: 28 µg/mL (≈ 90.8 µM)
MIC [9]: 112 µg/mL (≈ 363 µM)
MIC [10]: 7 µg/mL (≈ 22.7 µM)
MIC [11]: 56 µg/mL (≈ 182 µM)
MIC (Rosellinia necatrix): < 3.5 µg/mL
MIC [12]: 14 µg/mL (≈ 45.4 µM)
IC50 [38]: 2.54 µM
IC50 (RAW264.7 [36]): 18 µM
IC50 (RAW264.7 [37]): 18 µM

CC(C)=CCc1c(O)ccc2cc(-c3cc(O)cc(O)c3)oc12
MIC (Escherichia coli [1]): > 100 µg/mL
MIC (Klebsiella pneumoniae [2]): > 100 µg/mL
MIC (Pseudomonas aeruginosa [3]): > 100 µg/mL
Activity [31]: 55%
Activity [32]: 62.25%
Activity [33]: 67.87%
Activity [34]: 69.72%
EC50 [35]: 5.06 µg/mL (≈ 16.3 µM)
